# Laboratory results published in patent US10131652B2, “Pyrimidinyloxy benzene derivatives as herbicides” (E. I. DU PONT DE NEMOURS AND COMPANY, priority 2014, dated 2018).
# Like-named read-outs stand apart in the source and are kept apart here.
# What was measured:
# Assay type in all cases: in vivo
# soybean (Glycine max) = assay: Test F pre-/postemergence plant response; settings: Glycine max, scale 0 to 100, read-out: Plant response rating, Soybean
# In short: (§1)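 Two application timings were run side by side: soil surface treatment of freshly planted seed in silt loam, and foliar treatment of seedlings 2 to 18 cm high. Plants stayed in the greenhouse 14 to 21 days before visual 0–100 injury scoring against controls.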
# [1] = system: dayflower (Virginia (VA) dayflower, Commelina virginica); assay: Test F pre-/postemergence plant response; settings: Commelina virginica, scale 0 to 100, read-out: Plant response rating, Dayflower, VA
# In short: as §1
# [2] = system: sandbur (southern sandbur, Cenchrus echinatus); assay: Test F pre-/postemergence plant response; settings: Cenchrus echinatus, scale 0 to 100, read-out: Plant response rating, Sandbur
# In short: as §1
# [3] = system: giant foxtail (Setaria faberii); assay: Test F pre-/postemergence plant response; settings: Setaria faberi, pre-emergence, scale 0 to 100, read-out: Plant response rating, Foxtail, Giant
# In short: as §1
# [4] = system: Brazilian crabgrass (Digitaria horizontalis); assay: Test F pre-/postemergence plant response; settings: Digitaria horizontalis, scale 0 to 100, read-out: Plant response rating, Crabgrass, Brazil
# In short: as §1
# [5] = system: surinam grass (Brachiaria decumbens); assay: Test F pre-/postemergence plant response; settings: Urochloa decumbens, pre-emergence, scale 0 to 100, read-out: Plant response rating, Surinam Grass
# In short: as §1
# [6] = system: large (Lg) crabgrass (Digitaria sanguinalis); assay: Test F pre-/postemergence plant response; settings: Digitaria sanguinalis, pre-emergence, scale 0 to 100, read-out: Plant response rating, Crabgrass, Large
# In short: as §1
# [7] = system: barnyardgrass (Echinochloa crus-galli); assay: Test F pre-/postemergence plant response; settings: Echinochloa crus-galli, scale 0 to 100, read-out: Plant response rating, Barnyardgrass
# In short: as §1
# [8] = system: Italian ryegrass (Lolium multiflorum); assay: Test F pre-/postemergence plant response; settings: Lolium multiflorum, scale 0 to 100, read-out: Plant response rating, Ryegrass, Italian; for pest or weed control at 16 g/ha: 16 g ai/ha; for pest or weed control at 31 g/ha: 31 g ai/ha; for pest or weed control at 125 g/ha: 125 g ai/ha
# In short: as §1
# [9] = system: morningglory (Ipomoea coccinea); assay: Test F pre-/postemergence plant response; settings: Ipomoea, pre-emergence, scale 0 to 100, read-out: Plant response rating, Morningglory
# In short: as §1
# [10] = system: lambsquarters (Chenopodium album); assay: Test F pre-/postemergence plant response; settings: Chenopodium album, pre-emergence, scale 0 to 100, read-out: Plant response rating, Lambsquarters
# In short: as §1
# [11] = system: waterhemp_RES1 (ALS & Triazine resistant common waterhemp, Amaranthus rudis); assay: Test F postemergence plant response; settings: scale 0 to 100
# Description: (§2) At the same time, plants from these crop and weed species and also waterhemp_RES1, (ALS & Triazine resistant common waterhemp, Amaranthus rudis), and waterhemp_RES2, (ALS & HPPD resistant common waterhemp, Amaranthus rudis) were treated with postemergence applications of test chemicals formulated in the same manner. Plants ranged in height from 2 to 18 cm for postemergence treatments (1- to 4-leaf stage).
# (§3) Treated plants and controls were maintained in a greenhouse for 14 to 21 days, after which time all species were compared to controls and visually evaluated. Plant response ratings, summarized in Table F, are based on a scale of 0 to 100 where 0 is no effect and 100 is complete control. A dash (-) response means no test result.
# [12] = system: waterhemp_RES2 (ALS & HPPD resistant common waterhemp, Amaranthus rudis); assay: Test F postemergence plant response; settings: scale 0 to 100
# Description: as §2, §3
# [13] = post-emergence, 8 g ai/ha Postemergence
# [14] = post-emergence, 16 g ai/ha Postemergence
# [15] = post-emergence, 31 g ai/ha Postemergence
# [16] = post-emergence, 62 g ai/ha Postemergence
# [17] = post-emergence, 125 g ai/ha Postemergence
# [18] = pre-emergence, 8 g ai/ha Preemergence
# [19] = pre-emergence, 16 g ai/ha Preemergence
# [20] = pre-emergence, 31 g ai/ha Preemergence
# [21] = pre-emergence, 125 g ai/ha Preemergence
# [22] = pre-emergence, 62 g ai/ha Preemergence
compound,measurement,setting,value
"FC(F)c1cc(-c2ccccc2Oc2ncc(Cl)cn2)on1 [Compound 53, 5-chloro-2-[2-[3-(difluoromethyl)-5-isoxazolyl]phenoxy]pyrimidine]",plant injury at 8 g/ha,soybean (Glycine max); [13],40%
same,plant injury at 16 g/ha,soybean (Glycine max); [14],80%
same,plant injury at 31 g/ha,soybean (Glycine max); [15],95%
same,plant injury at 62 g/ha,soybean (Glycine max); [16],95%
same,plant injury at 125 g/ha,soybean (Glycine max); [17],95%
same,plant injury at 8 g/ha,soybean (Glycine max); [18],0%
same,plant injury at 16 g/ha,soybean (Glycine max); [19],0%
same,plant injury at 31 g/ha,soybean (Glycine max); [20],0%
same,plant injury at 125 g/ha,soybean (Glycine max); [21],35%
same,plant injury at 62 g/ha,"soybean (Glycine max); pre-emergence, Preemergence",0%
same,pest or weed control at 8 g/ha,[1]; [13],30%
same,pest or weed control at 16 g/ha,[1]; [14],40%
same,pest or weed control at 31 g/ha,[1]; [15],30%
same,pest or weed control at 62 g/ha,[1]; [16],50%
same,pest or weed control at 125 g/ha,[1]; [17],60%
same,pest or weed control at 8 g/ha,[1]; [18],0%
same,pest or weed control at 16 g/ha,[1]; [19],0%
same,pest or weed control at 31 g/ha,[1]; [20],0%
same,pest or weed control at 62 g/ha,[1]; [22],50%
same,pest or weed control at 125 g/ha,[1]; [21],95%
same,pest or weed control at 8 g/ha,[2]; [13],0%
same,pest or weed control at 16 g/ha,[2]; [14],0%
same,pest or weed control at 31 g/ha,[2]; [15],0%
same,pest or weed control at 62 g/ha,[2]; [16],5%
same,pest or weed control at 125 g/ha,[2]; [17],10%
same,pest or weed control at 8 g/ha,[2]; [18],0%
same,pest or weed control at 16 g/ha,[2]; [19],0%
same,pest or weed control at 31 g/ha,[2]; [20],0%
same,pest or weed control at 125 g/ha,[2]; [21],0%
same,pest or weed control at 62 g/ha,"[2]; pre-emergence, Preemergence",0%
same,pest or weed control at 8 g/ha,[3]; 8 g ai/ha Preemergence,0%
same,pest or weed control at 16 g/ha,[3]; 16 g ai/ha Preemergence,0%
same,pest or weed control at 31 g/ha,[3]; 31 g ai/ha Preemergence,20%
same,pest or weed control at 62 g/ha,[3]; 62 g ai/ha Preemergence,70%
same,pest or weed control at 125 g/ha,[3]; 125 g ai/ha Preemergence,95%
same,pest or weed control at 8 g/ha,[4]; [13],0%
same,pest or weed control at 16 g/ha,[4]; [14],10%
same,pest or weed control at 31 g/ha,[4]; [15],15%
same,pest or weed control at 62 g/ha,[4]; [16],20%
same,pest or weed control at 125 g/ha,[4]; [17],20%
same,pest or weed control at 8 g/ha,[4]; [18],0%
same,pest or weed control at 16 g/ha,[4]; [19],0%
same,pest or weed control at 31 g/ha,[4]; [20],5%
same,pest or weed control at 62 g/ha,[4]; [22],85%
same,pest or weed control at 125 g/ha,[4]; [21],90%
same,pest or weed control at 8 g/ha,[5]; 8 g ai/ha Preemergence,0%
same,pest or weed control at 16 g/ha,[5]; 16 g ai/ha Preemergence,0%
same,pest or weed control at 31 g/ha,[5]; 31 g ai/ha Preemergence,0%
same,pest or weed control at 125 g/ha,[5]; 125 g ai/ha Preemergence,0%
same,pest or weed control at 62 g/ha,[5]; Preemergence,0%
same,pest or weed control at 8 g/ha,[6]; 8 g ai/ha Preemergence,0%
same,pest or weed control at 16 g/ha,[6]; 16 g ai/ha Preemergence,0%
same,pest or weed control at 31 g/ha,[6]; 31 g ai/ha Preemergence,15%
same,pest or weed control at 62 g/ha,[6]; 62 g ai/ha Preemergence,80%
same,pest or weed control at 125 g/ha,[6]; 125 g ai/ha Preemergence,98%
same,pest or weed control at 8 g/ha,[7]; [13],0%
same,pest or weed control at 16 g/ha,[7]; [14],0%
same,pest or weed control at 31 g/ha,[7]; [15],0%
same,pest or weed control at 62 g/ha,[7]; [16],0%
same,pest or weed control at 125 g/ha,[7]; [17],10%
same,pest or weed control at 8 g/ha,[7]; [18],0%
same,pest or weed control at 16 g/ha,[7]; [19],0%
same,pest or weed control at 31 g/ha,[7]; [20],0%
same,pest or weed control at 62 g/ha,[7]; [22],20%
same,pest or weed control at 125 g/ha,[7]; [21],50%
same,pest or weed control at 8 g/ha,[8]; [13],0%
same,pest or weed control at 16 g/ha,"[8]; post-emergence, Postemergence",0%
same,pest or weed control at 31 g/ha,"[8]; post-emergence, Postemergence",0%
same,pest or weed control at 62 g/ha,"[8]; post-emergence, 62 g ai/ha, Postemergence",5%
same,pest or weed control at 125 g/ha,"[8]; post-emergence, Postemergence",0%
same,pest or weed control at 8 g/ha,[8]; [18],0%
same,pest or weed control at 16 g/ha,"[8]; pre-emergence, Preemergence",0%
same,pest or weed control at 31 g/ha,"[8]; pre-emergence, Preemergence",0%
same,pest or weed control at 125 g/ha,"[8]; pre-emergence, Preemergence",0%
same,pest or weed control at 62 g/ha,"[8]; pre-emergence, Preemergence",0%
same,pest or weed control at 8 g/ha,[9]; 8 g ai/ha Preemergence,0%
same,pest or weed control at 16 g/ha,[9]; 16 g ai/ha Preemergence,0%
same,pest or weed control at 31 g/ha,[9]; 31 g ai/ha Preemergence,0%
same,pest or weed control at 125 g/ha,[9]; 125 g ai/ha Preemergence,0%
same,pest or weed control at 62 g/ha,[9]; Preemergence,0%
same,pest or weed control at 8 g/ha,[10]; 8 g ai/ha Preemergence,65%
same,pest or weed control at 16 g/ha,"[10]; 16 g ai/ha, Preemergence",65%
same,pest or weed control at 31 g/ha,"[10]; 31 g ai/ha, Preemergence",95%
same,pest or weed control at 125 g/ha,"[10]; 125 g ai/ha, Preemergence",98%
same,pest or weed control at 62 g/ha,[10]; Preemergence,95%
same,"Plant response rating, Waterhemp_RES1",[11]; 8 g ai/ha Postemergence,70
same,"Plant response rating, Waterhemp_RES1",[11]; 16 g ai/ha Postemergence,85
same,"Plant response rating, Waterhemp_RES1",[11]; 31 g ai/ha Postemergence,90
same,"Plant response rating, Waterhemp_RES1",[11]; 62 g ai/ha Postemergence,95
same,"Plant response rating, Waterhemp_RES1",[11]; 125 g ai/ha Postemergence,100
same,"Plant response rating, Waterhemp_RES2",[12]; 8 g ai/ha Postemergence,70
same,"Plant response rating, Waterhemp_RES2",[12]; 16 g ai/ha Postemergence,80
same,"Plant response rating, Waterhemp_RES2",[12]; 31 g ai/ha Postemergence,90
same,"Plant response rating, Waterhemp_RES2",[12]; 62 g ai/ha Postemergence,100
same,"Plant response rating, Waterhemp_RES2",[12]; 125 g ai/ha Postemergence,100
